Laboratory results reported in ChEMBL document CHEMBL1136423, “Phosphate ester serum albumin affinity tags greatly improve peptide half-life in vivo” (Bioorg Med Chem Lett, 2003).
Where a SMILES comes first, the peptide text is derived from it. Bridges are numbered along the chain shown (N, C = ends). The star is where a group is joined. X3 = O=C(CCCCCOP(=O)(O)OC1CCC(c2ccccc2)(c2ccccc2)CC1)*; X4 = O=C(CCC(=O)*)NS(=O)(=O)c1ccc2ccccc2c1; X2 = O=C(CCCCCOP(=O)(O)Oc1ccc2ccccc2c1)*; X1 = O=C(CCCCCOP(=O)(O)OCCCCCc1ccccc1)*

Assays:
Coagulation factor VII [1] = molecular target: T1, Coagulation factor VII (Homo sapiens, UniProt P08709); test: Inhibitory activity for the compound against coagulation factor VIIa in presence of 1% ovalbumin
T1 sequence (P08709 whole entry): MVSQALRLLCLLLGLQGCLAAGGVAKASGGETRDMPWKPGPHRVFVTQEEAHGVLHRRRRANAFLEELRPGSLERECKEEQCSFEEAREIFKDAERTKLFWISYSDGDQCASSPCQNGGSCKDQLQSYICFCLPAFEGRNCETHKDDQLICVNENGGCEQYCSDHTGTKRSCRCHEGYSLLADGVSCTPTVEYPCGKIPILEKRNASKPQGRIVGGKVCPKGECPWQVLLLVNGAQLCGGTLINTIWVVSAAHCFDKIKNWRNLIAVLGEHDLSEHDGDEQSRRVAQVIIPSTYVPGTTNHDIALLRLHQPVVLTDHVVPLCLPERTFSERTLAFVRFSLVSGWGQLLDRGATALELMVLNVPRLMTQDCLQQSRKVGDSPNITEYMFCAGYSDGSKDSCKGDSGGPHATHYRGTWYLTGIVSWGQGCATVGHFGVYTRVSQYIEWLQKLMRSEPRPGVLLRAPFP

Coagulation factor VII [2] = molecular target: T1, Coagulation factor VII; test: Inhibitory activity for the compound against coagulation factor VIIa in presence of 0.1% human serum albumin
Albumin = Albumin (Homo sapiens, UniProt P02768); test: Compound was measured for its retention time in human serum albumin;where k`=tt-t0/t0; tt=retention time of compound and t0=retention time of DMSO
Coagulation factor VII [3] = molecular target: T1, Coagulation factor VII; test: Inhibitory activity for the compound against coagulation factor VIIa in presence of 0.1% rabbit serum albumin
[4] = Clearance was measured at the concentration of 1.11 mg/kg in rabbit blood sample; type: ADME, organism-based, Oryctolagus cuniculus; parameters: dose 1.11 mg/kg
[5] = Half-life was measured at the concentration of 1.11 mg/kg in rabbit blood sample; type: ADME, organism-based, Oryctolagus cuniculus; parameters: dose 1.11 mg/kg
[6] = Clearance was measured at the concentration of 2.0 mg/kg in rabbit blood sample; type: ADME, organism-based, Oryctolagus cuniculus; parameters: dose 2 mg/kg
[7] = Half-life was measured at the concentration of 2.0 mg/kg in rabbit blood sample; type: ADME, organism-based, Oryctolagus cuniculus; parameters: dose 2 mg/kg

Chain of Albumin (P02768 whole entry): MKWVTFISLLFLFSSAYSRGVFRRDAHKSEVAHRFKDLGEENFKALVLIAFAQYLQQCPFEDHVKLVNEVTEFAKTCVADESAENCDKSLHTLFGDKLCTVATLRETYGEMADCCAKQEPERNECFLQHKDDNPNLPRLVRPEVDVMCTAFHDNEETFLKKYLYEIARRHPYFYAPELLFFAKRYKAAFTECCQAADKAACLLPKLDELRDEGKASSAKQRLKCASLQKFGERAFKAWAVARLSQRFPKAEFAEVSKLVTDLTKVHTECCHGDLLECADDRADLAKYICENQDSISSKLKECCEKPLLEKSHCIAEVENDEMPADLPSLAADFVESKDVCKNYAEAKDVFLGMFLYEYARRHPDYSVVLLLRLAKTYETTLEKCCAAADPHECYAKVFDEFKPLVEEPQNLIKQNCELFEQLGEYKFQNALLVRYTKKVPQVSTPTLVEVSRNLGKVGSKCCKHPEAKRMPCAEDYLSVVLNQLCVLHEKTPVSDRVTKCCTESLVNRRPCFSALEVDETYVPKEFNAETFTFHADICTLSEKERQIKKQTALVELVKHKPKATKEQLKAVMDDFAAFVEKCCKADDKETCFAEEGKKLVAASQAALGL

For CC[C@H](C)[C@@H]1NC(=O)[C@H](CCCN=C(N)N)NC(=O)[C@@H]2CCCN2C(=O)[C@H](CC(N)=O)NC(=O)[C@H](CC(=O)O)NC(=O)[C@@H](NC(=O)[C@H](CC(C)C)NC(=O)[C@H](C)NC(C)=O)CSSC[C@@H](C(=O)N[C@@H](CCC(N)=O)C(=O)N[C@@H](Cc2ccccc2)C(=O)N[C@H](C(=O)N[C@@H](CCC(=O)O)C(=O)NCC(N)=O)C(C)C)NC(=O)[C@H](Cc2ccc(O)cc2)NC(=O)[C@H](Cc2c[nH]c3ccccc23)NC(=O)[C@H](CCCN=C(N)N)NC(=O)[C@H](CC(=O)O)NC1=O (Ac-ALCDNPRIDRWYCQFVEG-NH2; disulfide 3-13), the IC50 (Coagulation factor VII [1]) was 9.2 nM, the IC50 (Coagulation factor VII [2]) was 11 nM and the “k'/k'+1” value (Albumin) was 0.21. It also gave an IC50 (Coagulation factor VII [3]) of 9.7 nM, a clearance [4] of 26.8 mL/min/kg and a half-life [5] of 4.18 min.
For CC[C@H](C)[C@@H]1NC(=O)[C@H](CCCN=C(N)N)NC(=O)[C@@H]2CCCN2C(=O)[C@H](CC(N)=O)NC(=O)[C@H](CC(=O)O)NC(=O)[C@@H](NC(=O)[C@H](CC(C)C)NC(=O)[C@H](C)NC(=O)CCCCCOP(=O)(O)OCCCCCc2ccccc2)CSSC[C@@H](C(=O)N[C@@H](CCC(N)=O)C(=O)N[C@@H](Cc2ccccc2)C(=O)N[C@H](C(=O)N[C@@H](CCC(=O)O)C(=O)NCC(N)=O)C(C)C)NC(=O)[C@H](Cc2ccc(O)cc2)NC(=O)[C@H](Cc2c[nH]c3ccccc23)NC(=O)[C@H](CCCN=C(N)N)NC(=O)[C@H](CC(=O)O)NC1=O (X1-ALCDNPRIDRWYCQFVEG-NH2; disulfide 3-13), the IC50 (Coagulation factor VII [1]) was 2 nM, the IC50 (Coagulation factor VII [2]) was 2.4 nM and the “k'/k'+1” value (Albumin) was 0.92. It also gave an IC50 (Coagulation factor VII [3]) of 22 nM, a clearance [6] of 0.505 mL/min/kg and a half-life [7] of 79.1 min.
In the case of CC[C@H](C)[C@@H]1NC(=O)[C@H](CCCN=C(N)N)NC(=O)[C@@H]2CCCN2C(=O)[C@H](CC(N)=O)NC(=O)[C@H](CC(=O)O)NC(=O)[C@@H](NC(=O)[C@H](CC(C)C)NC(=O)[C@H](C)NC(=O)CCC(=O)NS(=O)(=O)c2ccc3ccccc3c2)CSSC[C@@H](C(=O)N[C@@H](CCC(N)=O)C(=O)N[C@@H](Cc2ccccc2)C(=O)N[C@H](C(=O)N[C@@H](CCC(=O)O)C(=O)NCC(N)=O)C(C)C)NC(=O)[C@H](Cc2ccc(O)cc2)NC(=O)[C@H](Cc2c[nH]c3ccccc23)NC(=O)[C@H](CCCN=C(N)N)NC(=O)[C@H](CC(=O)O)NC1=O (X4-ALCDNPRIDRWYCQFVEG-NH2; disulfide 3-13), the IC50 (Coagulation factor VII [1]) is reported as 3.6 nM, the IC50 (Coagulation factor VII [2]) is reported as 2.5 nM and the “k'/k'+1” value (Albumin) is reported as 0.97. The IC50 (Coagulation factor VII [3]) was 24 nM, the clearance [6] was 1.64 mL/min/kg and the half-life [7] was 30 min.
With CC[C@H](C)[C@@H]1NC(=O)[C@H](CCCN=C(N)N)NC(=O)[C@@H]2CCCN2C(=O)[C@H](CC(N)=O)NC(=O)[C@H](CC(=O)O)NC(=O)[C@@H](NC(=O)[C@H](CC(C)C)NC(=O)[C@H](C)NC(=O)CCCCCOP(=O)(O)Oc2ccc3ccccc3c2)CSSC[C@@H](C(=O)N[C@@H](CCC(N)=O)C(=O)N[C@@H](Cc2ccccc2)C(=O)N[C@H](C(=O)N[C@@H](CCC(=O)O)C(=O)NCC(N)=O)C(C)C)NC(=O)[C@H](Cc2ccc(O)cc2)NC(=O)[C@H](Cc2c[nH]c3ccccc23)NC(=O)[C@H](CCCN=C(N)N)NC(=O)[C@H](CC(=O)O)NC1=O (X2-ALCDNPRIDRWYCQFVEG-NH2; disulfide 3-13) the IC50 (Coagulation factor VII [1]) was 1.9 nM, the IC50 (Coagulation factor VII [2]) was 2 nM and the “k'/k'+1” value (Albumin) was 0.92. The IC50 (Coagulation factor VII [3]) was 9.2 nM, the clearance [6] was 0.707 mL/min/kg and the half-life [7] was 34.8 min.
With CC[C@H](C)[C@@H]1NC(=O)[C@H](CCCN=C(N)N)NC(=O)[C@@H]2CCCN2C(=O)[C@H](CC(N)=O)NC(=O)[C@H](CC(=O)O)NC(=O)[C@@H](NC(=O)[C@H](CC(C)C)NC(=O)[C@H](C)NC(=O)CCCCCOP(=O)(O)OC2CCC(c3ccccc3)(c3ccccc3)CC2)CSSC[C@@H](C(=O)N[C@@H](CCC(N)=O)C(=O)N[C@@H](Cc2ccccc2)C(=O)N[C@H](C(=O)N[C@@H](CCC(=O)O)C(=O)NCC(N)=O)C(C)C)NC(=O)[C@H](Cc2ccc(O)cc2)NC(=O)[C@H](Cc2c[nH]c3ccccc23)NC(=O)[C@H](CCCN=C(N)N)NC(=O)[C@H](CC(=O)O)NC1=O (X3-ALCDNPRIDRWYCQFVEG-NH2; disulfide 3-13) the IC50 (Coagulation factor VII [1]) was 4 nM, the IC50 (Coagulation factor VII [2]) was 3.4 nM and the “k'/k'+1” value (Albumin) was 0.78. For the same molecule, the IC50 (Coagulation factor VII [3]) was 90 nM, the clearance [6] was 0.185 mL/min/kg and the half-life [7] was 222 min.
